Experimental data from ChEMBL document CHEMBL4616597, “Could 5'-N and S ProTide analogues work as prodrugs of antiviral agents?” (Bioorg Med Chem Lett, 2020).
The source made the active and inactive calls. The rule behind the calls is not given here.

Tests used:
[1] = Prodrug activation assessed as carboxypeptidase Y (unknown origin) mediated cleavage at phenyl region resulting in formation of (2S)-2-[[hydroxy(phenoxy)phosphoryl]amino]propanoic acid measured after 120 mins by 13C-APT spectra analysis; settings: human, 2 h
[2] = tested on: Human immunodeficiency virus; assay: Antiviral activity against HIV; format: functional, organism-based
[3] = Prodrug activation assessed as carboxypeptidase Y (unknown origin) mediated metabolite formation at 3.1 ppm measured after 5 mins by P-NMR spectroscopy; format: ADME; settings: human
[4] = Prodrug activation assessed as carboxypeptidase Y (unknown origin) mediated cleavage of diastereoisomer measured after 120 mins by P-NMR spectroscopy; settings: human, 2 h
Dengue virus = assay: Antiviral activity against Dengue virus; format: functional, organism-based
[5] = tested on: Tick-borne encephalitis virus; assay: Antiviral activity against TBEV; format: functional, organism-based
[6] = Prodrug activation assessed as carboxypeptidase Y (unknown origin) mediated intermediate metabolite formation by P-NMR spectroscopy; format: ADME; settings: human
West Nile virus = assay: Antiviral activity against West Nile virus; format: functional, organism-based
[7] = Prodrug activation assessed as carboxypeptidase Y (unknown origin) mediated cleavage of diastereoisomer measured after 5 mins by P-NMR spectroscopy; settings: human
[8] = Prodrug activation in human HepG2 cell extract assessed as metabolite formation at 100 uM measured after 4 hrs by HPLC analysis; format: ADME, cell-based; settings: hepg2, 4 h
Coxsackievirus = assay: Antiviral activity against CVB3; format: functional, organism-based; settings: B3
[9] = Prodrug activation assessed as carboxypeptidase Y (unknown origin) mediated cleavage at ribose sugar region resulting in formation of 2R,3R,4R,5S)-2-(6-aminopurin-9-yl)-3-methyl-5-(sulfanylmethyl)tetrahydrofuran-3,4-diol measured after 120 mins by 13C-APT spectra analysis; settings: human, 2 h
Zika virus = assay: Antiviral activity against Zika virus; format: functional, organism-based
[10] = Prodrug activation assessed as carboxypeptidase Y (unknown origin) mediated signal shift at 13.2 ppm by P-NMR spectroscopy; settings: human
[11] = Prodrug activation assessed as carboxypeptidase Y (unknown origin) mediated metabolite formation at 3.3 ppm by P-NMR spectroscopy; format: ADME; settings: human
[12] = Prodrug activation assessed as carboxypeptidase Y (unknown origin) mediated (2S)-2-((((2R,3R,4R,5R)-5-(6-amino-9H-purin-9-yl)-3,4-dihydroxy-4-methyltetrahydrofuran-2-yl)methylamino)(phenoxy)phosphorylamino)propanoic acid intermediate formation measured after 5 mins by P-NMR spectroscopy; settings: human
[13] = Prodrug activation assessed as carboxypeptidase Y (unknown origin) mediated formation of metabolite from (2S)-2-((((2R,3R,4R,5R)-5-(6-amino-9H-purin-9-yl)-3,4-dihydroxy-4-methyltetrahydrofuran-2-yl)methylamino)(phenoxy)phosphorylamino)propanoic acid intermediate at 3.3 ppm by P-NMR spectroscopy; format: ADME; settings: human
[14] = Prodrug activation assessed as carboxypeptidase Y (unknown origin) mediated signal shift at 13.5 ppm by P-NMR spectroscopy; settings: human

SMILES	Drug metabolism [1]	Activity [2]	Drug metabolism [3]	Activity [4]	Activity (Dengue virus)	Activity [5]	Drug metabolism [6]	Activity (West Nile virus)	Activity [7]	Drug metabolism [8]	Activity (Coxsackievirus)	Drug metabolism [9]	Activity (Zika virus)	Activity [10]	Drug metabolism [11]	Drug metabolism [12]	Drug metabolism [13]	Activity [14]
COC(=O)[C@H](C)NP(=O)(Oc1ccccc1)SC[C@H]1O[C@@H](n2cnc3c(N)ncnc32)[C@](C)(O)[C@@H]1O (some centres not stated)	Metabolite_Detected	inactive	Metabolite_Detected	Not Active	inactive	inactive	Metabolite_Notdetected	inactive	Active	Metabolite_Detected	inactive	Metabolite_Detected	inactive					
COC(=O)[C@H](C)NP(=O)(NC[C@H]1O[C@@H](n2cnc3c(N)ncnc32)[C@](C)(O)[C@@H]1O)Oc1ccccc1 (some centres not stated)		inactive		Not Active	inactive	inactive		inactive	Not Active	Metabolite_Detected	inactive		inactive	Active	Metabolite_Detected	Metabolite_Detected	Metabolite_Detected	Active
